Here are results for 9 compounds from publication PMC10967572, “Induction of Oxidative Stress and Ferroptosis in Triple-Negative Breast Cancer Cells by Niclosamide via Blockade of the Function and Expression of SLC38A5 and SLC7A11” (Antioxidants, 2024).

For one test, the system named is Nrf2. Description: Nrf2 expression and subcellular localization (immunostaining, Western blot, qRT-PCR) in TNBC cells. It is filed as cell-based, human. As to conditions: MB231 and TXBR100; 24 h; Se-Met 250 μM and 1 mM, monomethylfumarate 0.1 mM; immunostaining and Western blot. As to the method:
(§1) Total RNA was extracted from cells using TRIzol Reagent (ThermoFisher Scientific, Waltham, MA, USA) and the RNA was reverse-transcribed using a high-capacity cDNA reverse transcription kit (ThermoFisher Scientific, Waltham, MA, USA) according to the manufacturer’s protocol. Quantitative RT-PCR was performed with Takara Taq Hot Start Version (TaKaRa Biotechnology, Shiga, Japan) or Power SYBR Green PCR master mix (Bio-Rad, Hercules, CA, USA). Primer sequences are shown in Supplemental Table S1. The relative mRNA expression was determined by the 2^−∆∆Ct method. Additionally, 18S was used as a housekeeping gene for normalization.
Cells and tumor tissues were lysed in Pierce™ RIPA buffer (ThermoFisher Scientific, Waltham, MA, USA) supplemented with Halt™ Protease and Phosphatase Inhibitor Cocktail (ThermoFisher Scientific, Waltham, MA, USA). Homogenates were centrifuged, and supernatants were used for protein measurement via Pierce™ BCA Protein Assay Kit (ThermoFisher Scientific, Waltham, MA, USA). […] Western blot samples were prepared in Laemmli sample buffer (Bio-Rad Laboratories, Hercules, CA, USA). They were loaded onto a SDS–PAGE gel and transferred onto a PVDF membrane (Bio-Rad Laboratories, Hercules, CA, USA). The membrane was blocked and antibodies diluted in 5% nonfat dry milk (Bio-Rad Laboratories, Hercules, CA, USA) or in 5% bovine serum albumin (Irvine Scientific, Santa Ana, CA, USA) were used. Protein bands were visualized using Pierce™ ECL Western Blotting Substrate (ThermoFisher Scientific, Waltham, MA, USA) and developed on the autoradiography film (Santa Cruz, Dallas, TX, USA). Primary antibodies were purchased either from Cell Signaling (Danvers, MA, USA) [anti-GPX4 (#52455), anti-FTH (#4393), anti-HSP60 (#12165), anti-phospho-p70S6K (#9205), anti-p70S6K (#2708)] or from Abcam (Waltham, MA, USA) [Nrf2 (#ab62352)]. Secondary antibody Horseradish peroxidase-conjugated goat anti-rabbit IgG (#1706515) was purchased from Bio-Rad Laboratories (Hercules, CA, USA). For quantification of protein levels by the densitometric analysis, the experiment was carried out in triplicate and the data were collected from the resultant three Western blots.
Background: A western blot detects proteins with antibodies after separation by electrophoresis.

Test [1] relates to Nrf2 target genes (SLC7A11, HO-1, GCLC, GCLM). Description: qRT-PCR of Nrf2 target genes in TNBC cells. It is filed as cell-based, human. As to conditions: MB231, TXBR100 and MB453, Se-Met 1 mM, 16 h. The procedure: as §1
For orientation: Quantitative PCR measures a nucleic acid by following its amplification.

The next test concerns SLC7A11. Put plainly: SLC7A11 transport activity (glutamate uptake) after treatment of cells. It is filed as cell-based, human. As to conditions: MB231, TXBR100 and MB453 cells treated before uptake. The procedure: The transport activity of SLC7A11 was calculated by subtracting the diffusional component from total uptake. […] Confluent cultures were used for uptake measurements.

The target in test [2] is SLC38A5 (Homo sapiens, UniProt Q8WUX1). Put plainly: Inhibition of SLC38A5-mediated [3H]-serine uptake in TNBC cells. As to conditions: IC50 for the inhibition of SLC38A5-mediated serine uptake, serine 5 μM, LiCl buffer pH 8.5 with 5 mM tryptophan.
Test [3] concerns MB231 cells and TXBR100 cells. Put plainly: Lipid radical (ferroptosis) assay with LipiRadical Green. It is filed as cell-based, human. Particulars: inhibitor 10 μM with niclosamide 5 μM; MB231 and TXBR100. The procedure: Lipid radical (ferroptosis) assay and iron assay were performed as follows. Cells were cultured on a 25 mm glass coverslip until they reached 60–70% confluency (~48 h). At the time of the experiment, cells were washed with NaCl buffer, pH 7.5 and then incubated with 1 µM of LipiRadical Green (a lipid radical detection reagent, FDV-0042, Funakoshi, Tokyo, Japan) or Ferro-orange (an iron detection probe, F374, Dojindo, Rockville, MD, USA) in NaCl buffer, pH 7.5 for 20 min and then washed with NaCl buffer, pH 7.5. To analyze the effects of modifiers of iron levels and lipid peroxidation, the cells were co-treated with the modifiers and the respective fluorescent probe for 20 min and then washed. The glass coverslip containing the cells was then probed under an inverted microscope. The fluorescence imaging was captured using a Nikon T1-E microscope with A1 confocal super-resolution module (Nikon, Dallas, TX, USA), with a 60× objective, at 488 nm. The images represent a maximum projection intensity derived from a Z-stack. The fluorescence quantification was performed by measuring the corrected total cell fluorescence (CTCF) using Image J (version: 2.14.0/1.54f) and the following formula; CTCF = (integrated density) − (area of cell of interest) × (mean fluorescence of background).

Test [4] has as its system TNBC cells (MB231 and TXBR100). Put plainly: MTT cell proliferation / viability assay. Particulars: niclosamide 1 μM with inhibitor 10 μM (hydroxychloroquine 25 μM), 48 h. It is filed as cell-based, human. The procedure: Cells were seeded in 96-well plates; after 24 h, niclosamide treatment was initiated. Cells were then cultured for 72 h with fresh medium containing freshly prepared niclosamide supplied every 24 h. Cells were washed with phosphate-buffered saline twice followed by MTT reagent (ATCC). Treatment and lysis of the cells were done as per the manufacturer’s instructions. Absorbance of the lysate was measured at 550 nm. Cell viability assay with various cell-death inhibitors was also performed as described above. Cells were treated with niclosamide (1 µM) along with cell death inhibitors (10 µM), except hydroxychloroquine (25 µM) for 48 h.

The subject of test [5] is MB231 cells and TXBR100 cells. Description: Cellular glutathione levels (GSH-Glo assay). Particulars: Homo sapiens; buthionine sulfoximine 100 μM; both cell lines (MB231, TXBR100). It is filed as cell-based, human. The procedure: Control and niclosamide-treated cells were used for measurement of cellular glutathione levels as instructed in the manufacturer’s protocol (GSH-Glo assay, Promega, Madison, WI, USA). The levels of malondialdehyde were measured using lipid peroxidation kit [Lipid Peroxidation (MDA) Assay Kit (MAK085), Millipore-sigma, St. Louis, MO, USA].

The subject of test [6] is SLC38A5. Details: method as in PMID 11243884, PMID 37812701. Particulars: cited from earlier work.

Structures can show the parent of a compound that is named as a salt. Residues, ends and D or L forms follow the SMILES beside them. *: point of attachment. Cbz = O=C(OCc1ccccc1)*; CH2F = FC*

Sequence of SLC38A5 (Homo sapiens, UniProt Q8WUX1) (Q8WUX1 whole entry): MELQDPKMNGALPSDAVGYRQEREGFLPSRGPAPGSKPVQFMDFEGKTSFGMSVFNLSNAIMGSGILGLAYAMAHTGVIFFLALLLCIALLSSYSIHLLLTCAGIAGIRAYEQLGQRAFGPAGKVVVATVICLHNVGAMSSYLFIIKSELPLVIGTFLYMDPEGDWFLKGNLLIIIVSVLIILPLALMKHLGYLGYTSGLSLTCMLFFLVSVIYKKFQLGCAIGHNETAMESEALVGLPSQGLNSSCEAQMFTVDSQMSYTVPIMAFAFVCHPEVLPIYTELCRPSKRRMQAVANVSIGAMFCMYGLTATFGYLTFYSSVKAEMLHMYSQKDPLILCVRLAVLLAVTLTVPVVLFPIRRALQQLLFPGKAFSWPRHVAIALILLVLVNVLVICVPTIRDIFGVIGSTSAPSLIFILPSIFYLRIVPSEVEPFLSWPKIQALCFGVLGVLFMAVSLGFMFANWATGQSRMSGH

Take `C[Se]CC[C@H](N)C(=O)O` [Se-Met, seleno-methionine]: the “cellular levels and nuclear localization of Nrf2” value with Nrf2 is listed as “increased”. The “mRNA levels for Nrf2 targets SLC7A11, HO-1, GCLC and GCLM” value in test [1] is on record as “significant increase”. Also, the “transport activity of SLC7A11 (glutamate uptake) in treated cells” value (shortened to “transport activity of SLC7A11”) in the test on SLC7A11 is “increased substantially”. Further, the IC50 (usually the concentration that inhibits the measured activity by half) against SLC38A5 [2] (MB231 cells) was 680 µM; at SLC38A5 [2] (TXBR100 cells) it was 453 µM.

Consider `COC(=O)C[C@H](NC(=O)[C@H](C)NC(=O)[C@@H](NC(=O)OCc1ccccc1)C(C)C)C(=O)CF` [ZVAD-fmk] (Cbz-Val-Ala-Asp(OMe)-CH2F), for which, in test [3], the “effect of cell death inhibitor on niclosamide-induced increase in lipid radical fluorescence” value is “did not have any effect”. In test [4], the “effect of cell death inhibitor on cell viability in the presence of niclosamide” value (shortened to “effect of cell death inhibitor … of niclosamide”) is reported as “failed to promote cell viability”.

With `CCCCS(=N)(=O)CCC(N)C(=O)O` (centres unmarked) [buthionine sulfoximine], the inhibition (in general, the change of the read-out against control, counted positive when it falls) at 100 µM in test [5] was about 90%.

`CCOC(=O)c1ccc(NC2CCCCC2)c(N)c1` [ferrostatin 1, ferrostatin-1]: the “effect of cell death inhibitor on niclosamide-induced increase in lipid radical fluorescence” value in test [3] is “blocked this increase”. The “effect of cell death inhibitor … of niclosamide” value in test [4] is “improved cell viability”.

Consider `CCN(CCO)CCCC(C)Nc1ccnc2cc(Cl)ccc12` (centres unmarked) [hydroxychloroquine], for which the “effect of cell death inhibitor … of niclosamide” value in test [4] is reported as “failed to promote cell viability”.

In the case of `CSCC[C@H](N)C(=O)O` [methionine], in the test with Nrf2, the “cellular levels and nuclear localization of Nrf2” value was “did not have any noticeable effect”. For the same compound, the “transport activity of SLC7A11” value in the test on SLC7A11 is given as “did not have any effect”. In addition, the figures for the IC50 against SLC38A5 [2] (MB231 cells) and against SLC38A5 [2] (TXBR100 cells) were 518 µM and 316 µM, respectively.

Take `COC(=O)/C=C/C(=O)O` [monomethylfumarate, monomethyl fumarate]: in the test with Nrf2, the “cellular levels and nuclear localization of Nrf2” value was “increased”. The “transport activity of SLC7A11” value with SLC7A11 is “stimulatory effect”.

In the case of `CN1C(=O)C(Cc2c[nH]c3ccccc23)NC1=S` (centres unmarked) [necrostatin, necrostatin-1], in test [3], the “effect of cell death inhibitor on niclosamide-induced increase in lipid radical fluorescence” value is recorded as “did not have any effect”. Also, the “effect of cell death inhibitor … of niclosamide” value in test [4] is “failed to promote cell viability”.

Take `N[C@@H](CO)C(=O)O` [serine]: the “Kt value for SLC38A5-mediated transport” value in the test with SLC38A5 [6] was 200 to 1300 µM.
